From PMC10360169 (Frontiers in Immunology, 2023)

Tests used:
Acar3 = format: binding, great reed warbler Acrocephalus arundinaceus; conditions: for Stability T½ of Acar3 in complex with the peptide: Table S1, top 94 PSCPL-scoring peptides, SPA, 10µM peptide, 125I β2m, folding over night at 18°C, dissociation measured up to 24 hours at 37°C; for Stability T½ (h), peptide - Acar3: Table S5, half-life estimated from dissociation in scintillation proximity assay
HLA-B*15:01 = HLA-B*15:01 (Homo sapiens, UniProt P01889, A329T/A93T/A95T/C349S/D201E/D98Y/E187L/E204Q/E69M/E70A/K202T/N87E/Q94N/R155S/R180W/S121R/S35A/S48A/V306I/V36M/Y140S/Y91S); set-up: method as in ref [40]-[42] = [40]; 40 Rasmussen M Harndahl M Kristensen A Nielsen I Jorgensen K Stryhn A . Large Scale analysis of peptide - HLA-I stability . ( 2014 ). || [41]; 41 Harndahl M Lamberth K Justesen S Røder G Madsen M Nielsen M . Large Scale analysis of peptide-HLA class I interactions . ( 2007 ). || [42]; 42 Harndahl M Lamberth K Justesen S Røder G Madsen M Sylvester-Hvid C . Large Scale analysis of peptide-HLA class I interactions . ( 2006 ).; conditions: IEDB; threshold minimum affinity of 500 nM or minimum half-life of 1 h; ref [40]-[42]; cited from earlier work
Acar19 = format: binding, great reed warbler Acrocephalus arundinaceus; conditions: Table S5, half-life estimated from dissociation in scintillation proximity assay
HLA-A*68:23 = HLA-A*68:23 (Homo sapiens, UniProt P04439, A269V/D185E/E176V/E277Q/E87N/F33Y/G231S/I121R/I166T/I218V/L180W/L300P/L318F/N151K/P208A/P217A/Q86R/R169H/T345S); set-up: method as in ref [40], [41], [43] = [40]; 40 Rasmussen M Harndahl M Kristensen A Nielsen I Jorgensen K Stryhn A . Large Scale analysis of peptide - HLA-I stability . ( 2014 ). || [41]; 41 Harndahl M Lamberth K Justesen S Røder G Madsen M Nielsen M . Large Scale analysis of peptide-HLA class I interactions . ( 2007 ). || [43]; 43 Harndahl M Lamberth K Røder G Justesen S Madsen M Nielsen M . Large Scale analysis of peptide-HLA class I interactions . ( 2010 ).; conditions: IEDB; threshold minimum affinity of 500 nM or minimum half-life of 1 h; ref [40], [41], [43]; cited from earlier work
HLA-B*35:01 = HLA-B*35:01 (Homo sapiens, UniProt P01889, A329T/A93T/A95T/C349S/D201E/D98Y/E176V/E187L/E204Q/E69T/I218V/K202T/L119I/Q94N/R155S/R180L/S121R/S35A/S48A/T118I/V127L/V306I/V36M/Y140S/Y91F); set-up: method as in ref [40]-[43] = [40]; 40 Rasmussen M Harndahl M Kristensen A Nielsen I Jorgensen K Stryhn A . Large Scale analysis of peptide - HLA-I stability . ( 2014 ). || [41]; 41 Harndahl M Lamberth K Justesen S Røder G Madsen M Nielsen M . Large Scale analysis of peptide-HLA class I interactions . ( 2007 ). || [42]; 42 Harndahl M Lamberth K Justesen S Røder G Madsen M Sylvester-Hvid C . Large Scale analysis of peptide-HLA class I interactions . ( 2006 ). || [43]; 43 Harndahl M Lamberth K Røder G Justesen S Madsen M Nielsen M . Large Scale analysis of peptide-HLA class I interactions . ( 2010 ).; conditions: IEDB; threshold minimum affinity of 500 nM or minimum half-life of 1 h; ref [40]-[43]; cited from earlier work
HLA-A*32:07 = HLA-A*32:07 (Homo sapiens, UniProt P04439, A270S/D101S/D185E/E176V/E277Q/F133L/F33S/G103R/G107R/G231S/H175R/I121M/I218V/I322F/K168Q/L105A/L300P/L318F/M331R/P208A/P217A/Q94H/R106L/R138Q/S129P/T104I/T323A/T345S/V100E/V321M/V358M); set-up: method as in ref [40], [41], [43] = [40]; 40 Rasmussen M Harndahl M Kristensen A Nielsen I Jorgensen K Stryhn A . Large Scale analysis of peptide - HLA-I stability . ( 2014 ). || [41]; 41 Harndahl M Lamberth K Justesen S Røder G Madsen M Nielsen M . Large Scale analysis of peptide-HLA class I interactions . ( 2007 ). || [43]; 43 Harndahl M Lamberth K Røder G Justesen S Madsen M Nielsen M . Large Scale analysis of peptide-HLA class I interactions . ( 2010 ).; conditions: IEDB; threshold minimum affinity of 500 nM or minimum half-life of 1 h; ref [40], [41], [43]; cited from earlier work
HLA-A*24:02 = HLA-A*24:02 (Homo sapiens, UniProt P04439, D101N/D140Y/D185E/E176V/E190D/F33S/G103R/G107R/I119L/I121M/I306V/K335N/L105A/L180Q/L300P/N151K/N90K/Q86E/Q94H/R106L/R138H/R89G/T104I/T345S/V100E/W191G/Y123F); conditions: below the IEDB thresholds; no reference given; cited from earlier work
HLA-B*58:01 = HLA-B*58:01 (Homo sapiens, UniProt P01889, A329T/C349S/D201E/D98Y/E176V/E187L/E204Q/E69T/G107R/I218V/I90N/K202T/L105A/L119I/N104I/N87E/Q89R/Q94S/R106L/R155S/R180L/R86G/S101N/S121R/S35A/S48A/T118I/V127L/V306I/V36M/Y140S/Y91M); conditions: IEDB; threshold minimum affinity of 500 nM or minimum half-life of 1 h; ref [40], [41], [43]; cited from earlier work
HLA-A*32:15 = HLA-A*32:15 (Homo sapiens, UniProt P04439, A270S/D101S/D185E/E176V/E277Q/E87N/F133L/G103R/G107R/G231S/H175R/I121M/I218V/I322F/K168Q/L105A/L300P/L318F/M331R/P208A/P217A/Q86R/Q94H/R106L/R138Q/S129P/T104I/T323A/T345S/V100E/V321M/V358M); set-up: method as in ref [40], [41], [43] = [40]; 40 Rasmussen M Harndahl M Kristensen A Nielsen I Jorgensen K Stryhn A . Large Scale analysis of peptide - HLA-I stability . ( 2014 ). || [41]; 41 Harndahl M Lamberth K Justesen S Røder G Madsen M Nielsen M . Large Scale analysis of peptide-HLA class I interactions . ( 2007 ). || [43]; 43 Harndahl M Lamberth K Røder G Justesen S Madsen M Nielsen M . Large Scale analysis of peptide-HLA class I interactions . ( 2010 ).; conditions: IEDB; threshold minimum affinity of 500 nM or minimum half-life of 1 h; ref [40], [41], [43]; cited from earlier work

Sequence	Stability T½ (h), peptide - Acar19 (Acar19)	also measured
AMSAQAAAF [P1]		Stability T½ of Acar3 in complex with the peptide (Acar3): 678 min; Stability T½ (h), peptide - Acar3 (Acar3): 11.3 h; binding to HLA-B*15:01 (HLA-B*15:01): binds
DYQGLPLEF [9-mer peptide]	3.5 h	Stability T½ of Acar3 in complex with the peptide (Acar3): 12 min; Stability T½ (h), peptide - Acar3 (Acar3): 0.2 h
MSNPLTSPI [9-mer peptide]	6.3 h	
MTMITPPTF [P3]		Stability T½ of Acar3 in complex with the peptide (Acar3): 618 min; Stability T½ (h), peptide - Acar3 (Acar3): 10.3 h; binding to HLA-A*68:23 (HLA-A*68:23): binding partners; binding to HLA-B*35:01 (HLA-B*35:01): binding partners; binding to HLA-A*32:07 (HLA-A*32:07): binding partners; binding to HLA-A*24:02 (HLA-A*24:02): weak binding; binding to HLA-B*58:01 (HLA-B*58:01): binding partners; binding to HLA-A*32:15 (HLA-A*32:15): binding partners
MYLRTIYDL [9-mer peptide]	4.0 h	
MYMALIAAF [9-mer peptide]	0.3 h	
NAFHHPSAV [9-mer peptide]	0.1 h	
NHIRIEYII [9-mer peptide]	0.4 h	
NPLEIYQEI [9-mer peptide]	0.8 h	
NPSVLKILL [9-mer peptide]	0.2 h	
NTARLMAGA [9-mer peptide]	0.2 h	
NTDEIPELI [9-mer peptide]	0.2 h	
NTFAAWLPM [9-mer peptide]	0.6 h	
NVGRILGYV [9-mer peptide]	0.5 h	
NYFNRMFHF [9-mer peptide]	0.7 h	
NYMPYVFTL [9-mer peptide]	14.9 h	
NYNGLLSSI [9-mer peptide]	19.1 h	
QRASNVFDL [9-mer peptide]	0.2 h	
QTSSIEGAW [9-mer peptide]	0.1 h	
QYPAFVLFI [9-mer peptide]	0.2 h	
RPAPATGAL [9-mer peptide]	0.3 h	
SFHIIEWLF [9-mer peptide]	0.2 h	
SFIPIFYQF [9-mer peptide]	1.2 h	
STAPTGSWF [9-mer peptide]	0.2 h	
STYGISEDL [9-mer peptide]	0.1 h	
SYLGLTQPF [9-mer peptide]	0.2 h	

Sequence	Stability T½ (h), peptide - Acar19 (Acar19)	also measured
SYLQAIGIL [9-mer peptide]	0.1 h	
SYQALAFDI [9-mer peptide]	0.5 h	
TFMGMNVQF [9-mer peptide]	0.1 h	
TFMYVFSTF [9-mer peptide]	0.2 h	
TNTQNNDWF [9-mer peptide]	0.2 h	
TRAPAPFPL [9-mer peptide]	0.1 h	Stability T½ (h), peptide - Acar3 (Acar3): 0.1 h
TTLSIYFLL [9-mer peptide]	0.1 h	
TYMFTHIDL [9-mer peptide]	0.1 h	
TYSPALNKM [9-mer peptide]	0.1 h	
VMKRNFIDF [9-mer peptide]	0.1 h	
VQHNIKHSF [9-mer peptide]	0.1 h	
VSFSMVGLF [9-mer peptide]	0.1 h	
VTNRHEEKF [9-mer peptide]	0.1 h	
WFGHLASDW [9-mer peptide]	0.1 h	
WYAPVALLF [9-mer peptide]	0.2 h	
YFDPANGKF [9-mer peptide]	0.1 h	
YISPIFIPM [9-mer peptide]	0.1 h	
YNAELLVAL [9-mer peptide]	0.2 h	
YQAGISAAL [9-mer peptide]	0.2 h	
YRSMIAFKL [9-mer peptide]	0.1 h	
YTMELCGAM [9-mer peptide]	0.1 h	
YTYPIAHTA [9-mer peptide]	0.1 h	
YYNAFHWAI [9-mer peptide]	0.4 h	
YYNAFQWAI [9-mer peptide]	0.4 h	
YYSNKVFPI [9-mer peptide]	0.2 h	
